How the values were obtained:
[1] = molecular target: T1, proteins of U2OS cell lysate (Homo sapiens, UniProt P61247); test: Drug affinity chromatography with c-ponatinib and LC-MS/MS (ponatinib interactome); format: binding; details: RPS3A, 40S ribosomal protein S3a
T1 construct: Proteins enriched by c-ponatinib from U2OS cell lysate; endogenous in cells; host or cells: U2OS cell lysate
Method in brief: (§1)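 U2OS cell lysate in NP-40 lysis buffer (2 mg protein per pulldown) was incubated with amine-derivatized NHS beads for 2 h at 4 °C. Bound proteins were washed, eluted with 100 mM formic acid, reduced, alkylated and trypsin-digested, then identified by nano-UPLC–MS/MS on Orbitrap instruments with a 60 min gradient.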

[2] = molecular target: T2, proteins of U2OS cell lysate (Homo sapiens, UniProt P33991); test: as above; format: binding; details: MCM4, DNA replication licensing factor MCM4
T2 construct: Proteins enriched by c-ponatinib from U2OS cell lysate; endogenous in cells; host or cells: U2OS cell lysate
Method in brief: as §1

[3] = molecular target: T3, proteins of U2OS cell lysate (Homo sapiens, UniProt Q9Y2V7); test: as above; format: binding; details: COG6, Conserved oligomeric Golgi complex subunit 6
T3 construct: Proteins enriched by c-ponatinib from U2OS cell lysate; endogenous in cells; host or cells: U2OS cell lysate
Method in brief: as §1

[4] = test system: C57Bl6/J mice; design: method as in Nachbur et al, 2015; details: ref Nachbur et al, 2015; cited from earlier work

T2 sequence (P33991 whole entry): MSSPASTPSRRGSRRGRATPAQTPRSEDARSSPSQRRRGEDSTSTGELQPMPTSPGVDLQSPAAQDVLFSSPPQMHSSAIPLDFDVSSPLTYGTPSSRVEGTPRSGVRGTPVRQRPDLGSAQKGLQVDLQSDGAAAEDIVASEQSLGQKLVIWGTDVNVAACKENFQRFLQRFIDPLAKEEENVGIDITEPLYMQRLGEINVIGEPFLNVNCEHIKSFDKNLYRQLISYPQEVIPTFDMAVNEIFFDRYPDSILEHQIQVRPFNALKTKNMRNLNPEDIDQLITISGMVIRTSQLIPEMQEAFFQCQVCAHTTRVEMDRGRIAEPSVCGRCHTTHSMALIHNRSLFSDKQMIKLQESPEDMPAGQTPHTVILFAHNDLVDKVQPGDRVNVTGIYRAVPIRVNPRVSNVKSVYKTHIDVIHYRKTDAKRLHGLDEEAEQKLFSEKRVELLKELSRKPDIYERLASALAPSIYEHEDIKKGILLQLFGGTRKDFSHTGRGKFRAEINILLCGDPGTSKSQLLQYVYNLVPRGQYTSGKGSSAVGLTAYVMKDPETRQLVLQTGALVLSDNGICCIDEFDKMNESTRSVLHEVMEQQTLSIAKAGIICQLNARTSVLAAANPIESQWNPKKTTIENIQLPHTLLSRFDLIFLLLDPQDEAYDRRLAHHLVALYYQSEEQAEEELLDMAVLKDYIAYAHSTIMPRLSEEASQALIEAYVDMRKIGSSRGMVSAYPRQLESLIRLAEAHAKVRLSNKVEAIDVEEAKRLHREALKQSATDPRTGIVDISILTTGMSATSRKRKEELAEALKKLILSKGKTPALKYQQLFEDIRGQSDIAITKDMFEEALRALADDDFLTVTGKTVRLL
T3 sequence (Q9Y2V7 whole entry): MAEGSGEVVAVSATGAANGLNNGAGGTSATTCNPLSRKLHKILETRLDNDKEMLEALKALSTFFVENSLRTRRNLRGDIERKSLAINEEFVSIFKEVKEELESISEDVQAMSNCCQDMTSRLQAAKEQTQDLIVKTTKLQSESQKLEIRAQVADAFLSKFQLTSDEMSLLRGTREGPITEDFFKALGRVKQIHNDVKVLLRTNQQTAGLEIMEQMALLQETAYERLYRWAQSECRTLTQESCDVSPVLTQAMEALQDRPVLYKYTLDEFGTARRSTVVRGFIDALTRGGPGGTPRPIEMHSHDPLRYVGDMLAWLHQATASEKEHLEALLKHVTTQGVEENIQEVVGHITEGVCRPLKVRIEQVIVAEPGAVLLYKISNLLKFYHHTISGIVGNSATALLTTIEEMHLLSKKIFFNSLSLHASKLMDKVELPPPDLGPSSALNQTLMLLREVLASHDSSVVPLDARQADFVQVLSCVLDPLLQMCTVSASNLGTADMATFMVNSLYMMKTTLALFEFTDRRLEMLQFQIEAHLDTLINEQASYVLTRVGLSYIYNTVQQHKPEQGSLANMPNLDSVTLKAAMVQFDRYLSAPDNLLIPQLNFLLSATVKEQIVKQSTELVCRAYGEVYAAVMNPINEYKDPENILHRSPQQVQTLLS

| SMILES | Average LFQ PON_WT [1] | Average LFQ PON_WT [2] | Average LFQ PON_WT [3] | increase in serum levels of TNF in mice challenged with MDP [4] |
| --- | --- | --- | --- | --- |
| Cc1ccc(C(=O)Nc2ccc(CN3CCN(C)CC3)c(C(F)(F)F)c2)cc1C#Cc1cnc2cccnn12 [PON] | 21.3119 | 19.8468 | 20.9766 |  |
| Cc1ccc(-c2nn(C(C)(C)CNC(=O)c3ccncc3)c3ncnc(N)c23)cc1 [WEHI‐345, reference compound] |  |  |  | only partially inhibited |

From publication PMC6120666 (The EMBO Journal, 2018)
